Values quoted from earlier work as cited in patent publication US6989159B2 (JDS Pharmaceuticals, LLC, priority 2000, dated 2006).

SMILES: O=C([O-])[O-].[Li+].[Li+] [Lithium carbonate]
- eliminated through urine (in vivo): More than 95%
- reabsorbed in the proximal convoluted tubule (in vivo): 80%
- time to complete absorption in the gastrointestinal tract (in vivo): about 8 hours
- concentration in the liquor compared with the plasmatic one (steady state): below 50%
- plasma half-life at the steady state (steady state): 20 to 24 h
